What is called IC50 is the concentration at which inhibition is half-maximal.

In one test the target is menin protein (Homo sapiens (Human), UniProt O00255). In words: biochemical. Conditions: FP competitive binding; menin protein 4 nM, FAM-MM2 probe 2 nM. Format: binding. Summed up: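 Competitive fluorescence polarization assay using FAM-labelled MLL1 peptide probe FAM-MM2 (2 nM final) preincubated with menin (4 nM final) in PBS with 0.02% bovine γ-globulin, 4% DMSO and 0.01% Triton X-100. Compounds were added and incubated 30 min at room temperature. IC50 came from nonlinear regression of competition curves, with Ki also derived.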
Chain of menin protein (O00255 whole entry): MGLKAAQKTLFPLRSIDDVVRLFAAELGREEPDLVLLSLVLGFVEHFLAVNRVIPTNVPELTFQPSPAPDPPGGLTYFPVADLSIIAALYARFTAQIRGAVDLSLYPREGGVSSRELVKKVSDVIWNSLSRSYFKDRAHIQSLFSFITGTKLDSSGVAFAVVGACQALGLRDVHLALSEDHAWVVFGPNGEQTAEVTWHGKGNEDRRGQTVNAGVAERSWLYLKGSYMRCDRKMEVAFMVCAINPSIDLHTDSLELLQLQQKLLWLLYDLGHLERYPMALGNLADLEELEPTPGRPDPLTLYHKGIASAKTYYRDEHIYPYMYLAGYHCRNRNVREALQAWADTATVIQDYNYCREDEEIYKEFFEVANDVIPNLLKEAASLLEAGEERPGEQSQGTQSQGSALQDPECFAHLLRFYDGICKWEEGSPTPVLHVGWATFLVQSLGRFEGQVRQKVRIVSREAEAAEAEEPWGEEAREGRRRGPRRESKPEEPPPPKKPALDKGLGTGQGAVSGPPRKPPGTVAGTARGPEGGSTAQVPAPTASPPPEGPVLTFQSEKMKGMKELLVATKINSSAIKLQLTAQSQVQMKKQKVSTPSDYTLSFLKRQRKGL
On to `CCN1Cc2ccccc2C(C2CCCC2)(C2CCN(Cc3ccccc3Oc3ccc(S(=O)(=O)c4ccncc4)cc3)CC2)C1` (stereo not drawn) [compound 162, 4-cyclopentyl-2-ethyl-4-(1-(2-(4-(pyridin-4-ylsulfonyl)phenoxy)benzyl)piperidin-4-yl)-1,2,3,4-tetrahydroisoquinoline], for which the “Menin Binding Affinity IC50 (μM)” value is on record as “No inhibition”.
Turning to `c1ccc2c(c1)CCNC2(c1ccncc1)C1CCCC1` (stereo not drawn) [compound 78, 1-cyclopentyl-1-(pyridin-4-yl)-1,2,3,4-tetrahydroisoquinoline], the “Menin Binding Affinity IC50 (μM)” value was “No inhibition”.

Staying with this test, now noted: FP competitive binding; menin protein 4 nM, FAM-MM2 probe 2 nM; read-out: Menin Binding Affinity IC50.
As for `CSC[C@@H]1CCC[C@H]1C(C#N)(c1ccccc1)C1CCN(CC2CN(c3ccc(S(=O)(=O)c4ccncc4)cc3)C2)CC1` (mixture of isomers) [compound 260, rac-2-((1R,2R)-2-((methylthio)methyl)cyclopentyl)-2-phenyl-2-(1-((1-(4-(pyridin-4-ylsulfonyl)phenyl)azetidin-3-yl)methyl)piperidin-4-yl)acetonitrile], the IC50 is 17 µM.
In the case of `COCC[C@@H]1CCC[C@H]1C(C#N)(c1ccccc1)C1CCN(CC2CN(c3ccc(S(=O)(=O)c4ccnc(C)c4)cc3)C2)CC1` (mixture of isomers) [compound 337, rac-2-((1R,2S)-2-(2-methoxyethyl)cyclopentyl)-2-(1-((1-(4-((2-methylpyridin-4-yl)sulfonyl)phenyl)azetidin-3-yl)methyl)piperidin-4-yl)-2-phenylacetonitrile], the IC50 is 25.8 µM.
On to `N#CC(c1ccccc1)(C1CCN(CC2CN(c3ccc(S(=O)(=O)c4ccncc4)cc3)C2)CC1)[C@H]1CCC[C@@H]1CCO` (mixture of isomers) [compound 342, rac-2-((1S,2R)-2-(2-hydroxyethyl)cyclopentyl)-2-phenyl-2-(1-((1-(4-(pyridin-4-ylsulfonyl)phenyl)azetidin-3-yl)methyl)piperidin-4-yl)acetonitrile], for which the IC50 was determined as 0.897 µM.
Consider `CS(=O)(=O)C[C@H]1CCC[C@@H]1C(C#N)(c1ccccc1)C1CCN(CC2CN(c3ccc(S(=O)(=O)c4ccncc4)cc3)C2)CC1` (mixture of isomers) [compound 255, rac-2-((1S,2S)-2-((methylsulfonyl)methyl)cyclopentyl)-2-phenyl-2-(1-((1-(4-(pyridin-4-ylsulfonyl)phenyl)azetidin-3-yl)methyl)piperidin-4-yl)acetonitrile], for which the IC50 was found to be 4.7 µM.
As to `N#Cc1ccc(OCCCN2CCC(C3(C4CCCC4)NCCc4cc(F)ccc43)CC2)cc1` (stereo not drawn) [compound 30, 4-(3-(4-(1-cyclopentyl-6-fluoro-1,2,3,4-tetrahydroisoquinolin-1-yl)piperidin-1-yl)propoxy)benzonitrile], the IC50 is 0.439 µM.
Consider `CNC(=O)O[C@H]1CCC[C@@H]1C(Cn1ccnc1C)(c1cccc(F)c1)C1CCN(CC2CN(c3ccc(Cl)cc3)C2)CC1` (mixture of isomers) [compound 413, rac-(1S,2R)-2-(1-(1-((1-(4-chlorophenyl)azetidin-3-yl)methyl)piperidin-4-yl)-1-(3-fluorophenyl)-2-(2-methyl-1H-imidazol-1-yl)ethyl)cyclopentyl methylcarbamate], for which the IC50 was 0.006 µM.
Regarding `N#Cc1ccc(OCCCN2CCC(C3(c4ccccc4)NCCc4ccccc43)CC2)cc1` (stereo not drawn) [compound 246, 4-(3-(4-(1-phenyl-1,2,3,4-tetrahydroisoquinolin-1-yl)piperidin-1-yl)propoxy)benzonitrile], the IC50 came out at 35.6 µM.
Consider `N#Cc1ccc(OCCN2CCC(CC3(C4CCCC4)NCCc4ccccc43)CC2)cc1` (stereo not drawn) [compound 105, 4-(2-(4-((1-cyclopentyl-1,2,3,4-tetrahydroisoquinolin-1-yl)methyl)piperidin-1-yl)ethoxy)benzonitrile], for which the IC50 was determined as 20.2 µM.
As for `CNC(=O)O[C@@H]1CCC[C@H]1C(C#N)(c1ccccc1)C1CCN(CC2CN(c3ccc(C#N)cc3)C2)CC1` (mixture of isomers) [compound 364, rac-(1R,2S)-2-(cyano(1-((1-(4-cyanophenyl)azetidin-3-yl)methyl)piperidin-4-yl)(phenyl)methyl)cyclopentyl methylcarbamate], the half-maximal inhibitory concentration (IC50) was 3.1 µM.
The same measure, in the same setting: in the case of `CCC(=O)O[C@@H]1CCC[C@H]1C(C#N)(c1ccccc1)C1CCN(CC2CN(c3ccc(S(=O)(=O)c4ccncc4)cc3)C2)CC1` (mixture of isomers) [compound 196, rac-(1R,2S)-2-(cyano(phenyl)(1-((1-(4-(pyridin-4-ylsulfonyl)phenyl)azetidin-3-yl)methyl)piperidin-4-yl)methylcyclopentyl propionate] it was 1 µM.
On to `CS(=O)(=O)c1ccc(N2CC(CN3CCC(C4(C5CCCC5)C(=O)N(Cc5ccccc5)Cc5ccccc54)CC3)C2)cc1` (stereo not drawn) [compound 25, 2-benzyl-4-cyclopentyl-4-(1-((1-(4-(methylsulfonyl)phenyl)azetidin-3-yl)methyl)piperidin-4-yl)-1,4-dihydroisoquinolin-3(2H)-one], for which the IC50 was determined as 2.7 µM.
For the compound `CN1CCC(C2(C3C=CCCN3)CN(C)Cc3ccccc32)CC1` (stereo not drawn) [compound 167, 2-methyl-4-(1-methylpiperidin-4-yl)-4-(1,2,5,6-tetrahydropyridin-2-yl)-1,2,3,4-tetrahydroisoquinoline], the IC50 is 172 µM.
On to `N#Cc1ccc(-c2ccc(N3CCC(C4(C5CCCC5)NCCc5ccccc54)CC3)cc2)cc1` (stereo not drawn) [compound 77, 4′-(4-(1-cyclopentyl-1,2,3,4-tetrahydroisoquinolin-1-yl)piperidin-1-yl)-[1,1′-biphenyl]-4-carbonitrile], for which the IC50 is 2580 µM.
For the compound `N#Cc1ccc(OCCCN2CCC(C3(C4CCCC4)C(=O)NCc4ccccc43)CC2)cc1` (stereo not drawn) [compound 24, 4-(3-(4-(4-cyclopentyl-3-oxo-1,2,3,4-tetrahydroisoquinolin-4-yl)piperidin-1-yl)propoxy)benzonitrile], the IC50 is 0.416 µM.
Turning to `N#CC(c1ccccc1)(C1CCN(CC2CN(c3ccc(S(=O)(=O)c4ccncc4)cc3)C2)CC1)[C@@H]1CCC[C@H]1OC(=O)C1CC1` (mixture of isomers) [compound 198, rac-(1R,2S)-2-(cyano(phenyl)(1-((1-(4-(pyridin-4-ylsulfonyl)phenyl)azetidin-3-yl)methyl)piperidin-4-yl)methyl)cyclopentyl cyclopropanecarboxylate], the IC50 is 0.853 µM.
For the compound `CCCC(C)C1(C2CCN(CCCOc3ccc(C#N)cc3)CC2)NCCc2ccccc21` (stereo not drawn) [compound 245, 4-(3-(4-(1-(pentan-2-yl)-1,2,3,4-tetrahydroisoquinolin-1-yl)piperidin-1-yl)propoxy)benzonitrile], the IC50 was found to be 3.3 µM.
With `N#Cc1cc2cc(C(=O)N[C@H]3CC[C@H](C4(C5CCCC5)NCCc5ccccc54)CC3)ccc2[nH]1` (stereo partly drawn) [compound 80, 2-cyano-N-((1r,4r)-4-(1-cyclopentyl-1,2,3,4-tetrahydroisoquinolin-1-yl)cyclohexyl)-1H-indole-5-carboxamide], the IC50 worked out at 11.6 µM.
`CC(=O)O[C@H]1CCC[C@@H]1C(C#N)(c1cccc(F)c1)C1CCN(CC2CN(c3ccc(CC(F)(F)F)cc3)C2)CC1` (mixture of isomers) [compound 419, rac-(1S,2R)-2-(cyano(3-fluorophenyl)(1-((1-(4-(2,2,2-trifluoroethyl)phenyl)azetidin-3-yl)methyl)piperidin-4-yl)methyl)cyclopentyl acetate]: the IC50 is 0.293 µM.
On the same count and under the same terms, in the case of `CO[C@H]1CCC[C@H]1C(C#N)(c1ccccc1)C1CCN(CCCOc2ccc(C#N)cc2)CC1` (mixture of isomers) [compound 176, rac-4-(3-(4-(cyano((1S,2S)-2-methoxycyclopentyl)(phenyl)methyl)piperidin-1-yl)propoxy)benzonitrile] it was 140 µM; in that of `CC(=O)O[C@@H]1CCC[C@H]1C(C#N)(c1ccccc1)C1CCN(CC2CN(c3ccc(S(=O)(=O)C4CC4)cc3)C2)CC1` (mixture of isomers) [compound 188, rac-((1R,2S)-2-(cyano(1-((1-(4-(cyclopropylsulfonyl)phenyl)azetidin-3-yl)methyl)piperidin-4-yl)(phenyl)methyl)cyclopentyl acetate], 1.7 µM; in that of `N#CC(c1ccccc1)(C1CCCC1)C1CCN(CC2CN(c3ccc(S(=O)(=O)c4ccncc4)cc3)C2)CC1` (stereo not drawn) [compound 190, 2-cyclopentyl-2-phenyl-2-(1-((1-(4-(pyridin-4-ylsulfonyl)phenyl)azetidin-3-yl)methyl)piperidin-4-yl)acetonitrile], 2 µM.
For the compound `CS(=O)(=O)N[C@@H]1CCC[C@H]1C(C#N)(c1ccccc1)C1CCN(CC2CN(c3ccc(S(=O)(=O)c4ccncc4)cc3)C2)CC1` (mixture of isomers) [compound 268, rac-N-((1R,2S)-2-(cyano(phenyl)(1-((1-(4-(pyridin-4-ylsulfonyl)phenyl)azetidin-3-yl)methyl)piperidin-4-yl)methyl)cyclopentyl) methanesulfonamide], the concentration for half-maximal inhibition (IC50) was determined as 4.7 µM.
Consider `CNC(=O)O[C@@H]1CCC[C@H]1C(C#N)(c1ccccc1)C1CCN(CC2CN(c3ccc(C(C)(C)C)cc3)C2)CC1` (mixture of isomers) [compound 423, rac-(1R,2S)-2-((1-((1-(4-(tert-butyl)phenyl)azetidin-3-yl)methyl)piperidin-4-yl)(cyano)(phenyl)methyl) cyclopentyl methylcarbamate], for which the IC50 amounted to 0.776 µM.
Regarding `CCS(=O)(=O)c1ccc(N2CC(CN3CCC(C4(C5CCCC5)CN(C)Cc5ccccc54)CC3)C2)cc1` (stereo not drawn) [compound 69, 4-cyclopentyl-4-(1-((1-(4-(ethylsulfonyl)phenyl)azetidin-3-yl)methyl)piperidin-4-yl)-2-methyl-1,2,3,4-tetrahydroisoquinoline], the IC50 was 0.03 µM.
For the compound `CNC(=O)O[C@H]1CCC[C@@H]1C(CN1CCCC1)(c1ccccc1)C1CCN(CC2CN(c3ccc(S(=O)(=O)c4ccccc4)cc3)C2)CC1` (mixture of isomers) [compound 361, rac-(1S,2R)-2-(1-phenyl-1-(1-((1-(4-(phenylsulfonyl)phenyl)azetidin-3-yl)methyl)piperidin-4-yl)-2-(pyrrolidin-1-yl)ethyl)cyclopentyl methylcarbamate], the IC50 came out at 0.063 µM.

Values taken from patent US10899738B2 (THE REGENTS OF THE UNIVERSITY OF MICHIGAN, priority 2016, dated 2021).
